Measurements reported in patent US12404262B2 (priority 2021, dated 2025).

Details: 1.0% DMSO, 24-hour incubation at ambient temperature, maximum theoretical 100 μM; for pH 2 solubility: 0.1N HCl, first value of the cell; for pH 7 solubility: 1×PBS buffer (pH 7.4), second value of the cell

| SMILES | pH 2 solubility | pH 7 solubility |
| --- | --- | --- |
| CC(C)(C#Cc1ccc(-c2ccc(Cl)c3c(N(C(=O)CN4CCN(C(=N)N)CC4)S(C)(=O)=O)nn(CC(F)(F)F)c23)c([C@H](Cc2cc(F)cc(F)c2)NC(=O)Cn2nc(C(F)(F)F)c3c2C(F)(F)[C@@H]2C[C@H]32)n1)S(C)(=O)=O [Compound 8, 2-(4-carbamimidoylpiperazin-1-yl)-N-(4-chloro-7-(2-((S)-1-(2-((3bS,4aR)-5,5-difluoro-3-(trifluoromethyl)-3b,4,4a,5-tetrahydro-1H-cyclopropa[3,4]cyclopenta[1,2-c]pyrazol-1-yl)acetamido)-2-(3,5-difluorophenyl)ethyl)-6-(3-methyl-3-(methylsulfonyl)but-1-yn-1-yl)pyridin-3-yl)-1-(2,2,2-trifluoroethyl)-1H-indazol-3-yl)-N-(methylsulfonyl)acetamide] | 57 μM | 6 μM |
| CC(C)(C#Cc1ccc(-c2ccc(Cl)c3c(N(C(=O)CCN4CCNCC4)S(C)(=O)=O)nn(CC(F)(F)F)c23)c([C@H](Cc2cc(F)cc(F)c2)NC(=O)Cn2nc(C(F)(F)F)c3c2C(F)(F)[C@@H]2C[C@H]32)n1)S(C)(=O)=O [Compound 9, N-(4-chloro-7-(2-((S)-1-(2-((3bS,4aR)-5,5-difluoro-3-(trifluoromethyl)-3b,4,4a,5-tetrahydro-1H-cyclopropa[3,4]cyclopenta[1,2-c]pyrazol-1-yl)acetamido)-2-(3,5-difluorophenyl)ethyl)-6-(3-methyl-3-(methylsulfonyl)but-1-yn-1-yl)pyridin-3-yl)-1-(2,2,2-trifluoroethyl)-1H-indazol-3-yl)-N-(methylsulfonyl)-3-(piperazin-1-yl)propanamide] | 2 μM | 21 μM |
| CC(C)(C#Cc1ccc(-c2ccc(Cl)c3c(N(C(=O)C(N)=O)S(C)(=O)=O)nn(CC(F)(F)F)c23)c([C@H](Cc2cc(F)cc(F)c2)NC(=O)Cn2nc(C(F)(F)F)c3c2C(F)(F)[C@@H]2C[C@H]32)n1)S(C)(=O)=O [Compound 10, N1-(4-chloro-7-(2-((S)-1-(2-((3bS,4aR)-5,5-difluoro-3-(trifluoromethyl)-3b,4,4a,5-tetrahydro-1H-cyclopropa[3,4]cyclopenta[1,2-c]pyrazol-1-yl)acetamido)-2-(3,5-difluorophenyl)ethyl)-6-(3-methyl-3-(methylsulfonyl)but-1-yn-1-yl)pyridin-3-yl)-1-(2,2,2-trifluoroethyl)-1H-indazol-3-yl)-N1-(methylsulfonyl)oxalamide] | 2/2 μM | 2/2 μM |
| CC(C)(C#Cc1ccc(-c2ccc(Cl)c3c(N(C(=O)C(=O)NCCP(=O)(O)O)S(C)(=O)=O)nn(CC(F)(F)F)c23)c([C@H](Cc2cc(F)cc(F)c2)NC(=O)Cn2nc(C(F)(F)F)c3c2C(F)(F)[C@@H]2C[C@H]32)n1)S(C)(=O)=O [Compound 11, (2-(2-(N-(4-chloro-7-(2-((S)-1-(2-((3bS,4aR)-5,5-difluoro-3-(trifluoromethyl)-3b,4,4a,5-tetrahydro-1H-cyclopropa[3,4]cyclopenta[1,2-c]pyrazol-1-yl)acetamido)-2-(3,5-difluorophenyl)ethyl)-6-(3-methyl-3-(methylsulfonyl)but-1-yn-1-yl)pyridin-3-yl)-1-(2,2,2-trifluoroethyl)-1H-indazol-3-yl)methylsulfonamido)-2-oxoacetamido)ethyl)phosphonic acid] | 5 μM | 36 μM |
